Reference: patent publication US9315475B2 (MERCK SHARP & DOHME CORP., priority 2011, dated 2016)
Structures can show the parent of a compound that is named as a salt.

Assays:
[1] = target: T1, wildtype HIV-1 protease (Human immunodeficiency virus type 1 group M subtype B, UniProt P04585); assay: Assay for inhibition of microbial expressed HIV protease (Pepcleav); assay type: biochemical; details: wild type HIV-1 protease expressed in E. coli, peptide substrate, pH 5.5; mean of at least two independent experiments; read-out: Pepcleav
T1 construct: the wildtype HIV-1 protease (which was expressed in Escherichia coli); made in house; host or cells: Escherichia coli
Outline: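 Cleavage of 400 μM peptide substrate Val-Ser-Gln-Asn-(βnaphthyl)Ala-Pro-Ile-Val by 20 pM wild-type enzyme (E. coli-expressed) ran 1 h at 30 °C after 30 min inhibitor preincubation, pH 5.5 acetate buffer. Inhibition derived from product peak area by C18 LC with multiple-reaction-monitoring MS after formic acid quench.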

[2] = tested on: HIV-1 (H9IIIB strain); assay: Antiviral acute infection assay in cell culture (Spread); assay type: cell-based; details: Human immunodeficiency virus 1, T-lymphoid, HIV-1 H9IIIB infection of MT-4 human T-lymphoid cells in 10% FBS; mean of at least two independent experiments
Source text: Antiviral Assays in Cell Culture (“Spread”)
Acute Infection Assay (“Spread”) data were generated using HIV-1 (H9IIIB strain) infection of MT-4 human T-lymphoid cells in 10% FBS, and according to the methods disclosed by J. P. Vacca et al, “L-735,524: An orally bioavailable human immunodeficiency virus type 1 protease inhibitor,” Proc. Natl. Acad. Sci. USA, Vol. 91, pp. 4096-4100 (April 1994).

Compound	IC50 [1]	EC50 [2]
N[C@H](C(=O)Nc1cccc(F)c1CC[C@@H]1CN[C@H](COC(=O)NCC(F)(F)F)CO1)C(c1ccc(F)cc1)c1ccc(F)cc1 [Example 80, 4-Fluoro-β-(4-fluorophenyl)-N-(3-fluoro-2-{2-[(2R,5S)-5-({[(2,2,2-trifluoroethyl)carbamoyl]oxy}methyl)morpholin-2-yl]ethyl}phenyl)-L-phenylalaninamide dihydrochloride]	0.0094 µM	0.045 µM
N[C@H](C(=O)Nc1cccc(F)c1OC[C@@H]1CN[C@H](COC(=O)NCC(F)(F)F)CO1)C(c1ccc(F)cc1)c1ccc(F)cc1 [Example 82, ((3S,6S)-6-((2-((S)-2-amino-3,3-bis(4-fluorophenyl)propanamido)-6-fluorophenoxy)methyl)morpholin-3-yl)methyl (2,2,2-trifluoroethyl)carbamate]	0.011 µM	0.04 µM
N[C@H](C(=O)Nc1cncc(F)c1CC[C@@H]1CN[C@H](COC(=O)NCC(F)(F)F)CO1)[C@H](c1ccccc1)c1ccc(Cl)cc1 [Example 95, (βR)-β-(4-Chlorophenyl)-N-(5-fluoro-4-{2-[(2R,5S)-5-({[(2,2,2-trifluoroethyl)carbamoyl]oxy}methyl)morpholin-2-yl]ethyl}pyridin-3-yl)-L-phenylalaninamide]	0.0004 µM	0.016 µM
N[C@H](C(=O)Nc1cncc(F)c1CC[C@@H]1CN[C@H](COC(=O)NCC(F)(F)F)CO1)[C@H](c1ccc(F)cc1)c1ccc2ccccc2c1 [Example 96, (βR)-4-Fluoro-N-(5-fluoro-4-{2-[(2R,5S)-5-({[(2,2,2-trifluoroethyl)carbamoyl]oxy}methyl)morpholin-2-yl]ethyl}pyridin-3-yl)-β-naphthalen-2-yl-L-phenylalaninamide]	0.0099 µM	0.073 µM
N[C@H](C(=O)Nc1cncc(F)c1CC[C@@H]1CN[C@H](COC(=O)NCC(F)(F)F)CO1)[C@@H](c1ccc(Cl)cc1)c1cc(F)cc(F)c1 [Example 97, (βS)-β-(4-Chlorophenyl)-3,5-difluoro-N-(5-fluoro-4-{2-[(2R,5S)-5-({[(2,2,2-trifluoroethyl)carbamoyl]oxy}methyl)morpholin-2-yl]ethyl}pyridin-3-yl)-L-phenylalaninamide]	0.0008 µM	0.017 µM
COC(=O)N[C@H](C(=O)Nc1cncc(F)c1CC[C@@H]1CN[C@H](COC(=O)NCC(F)(F)F)CO1)[C@H](c1ccccc1)c1ccc(Cl)cc1 [Example 107, (βR)-β-(4-Chlorophenyl)-N-(5-fluoro-4-{2-[(2R,5S)-5-({[(2,2,2-trifluoroethyl)carbamoyl]oxy}methyl)morpholin-2-yl]ethyl}pyridin-3-yl)-Nα-(methoxycarbonyl)-L-phenylalaninamide]	0.0003 µM	0.011 µM
NC(=O)OC[C@@H]1CO[C@H](CCc2c(F)cccc2NC(=O)[C@@H](N)C(c2ccc(F)cc2)c2ccc(F)cc2)CN1 [Example 116, N-[2-(2-{(2R,5S)-5-[(Carbamoyloxy)methyl]morpholin-2-yl}ethyl)-3-fluorophenyl]-4-fluoro-β-(4-fluorophenyl)-L-phenylalaninamide]	0.017 µM	0.047 µM
COC(=O)N[C@H](C(=O)Nc1cccc(F)c1CC[C@@H]1CN[C@H](COC(=O)NCC(C)(C)O)CO1)C(c1ccc(F)cc1)c1ccc(F)cc1 [Example 121, 4-Fluoro-N-(3-fluoro-2-{2-[(2R,5S)-5-({[(2-hydroxy-2-methylpropyl)carbamoyl]oxy}methyl)morpholin-2-yl]ethyl}phenyl)-β-(4-fluorophenyl)-Nα-(methoxycarbonyl)-L-phenylalaninamide]	0.0025 µM	0.01 µM
CC1(CNC(=O)OC[C@@H]2CO[C@H](CCc3c(F)cncc3NC(=O)[C@@H](N)C(c3ccc(F)cc3)c3ccc(F)cc3)CN2)CCCO1 (stereo partly drawn) [Example 123, 4-Fluoro-N-[5-fluoro-4-(2-{(2R,5S)-5-[({[(2-methyltetrahydrofuran-2-yl)methyl]carbamoyl}oxy)methyl]morpholin-2-yl}ethyl)pyridin-3-yl]-β-(4-fluorophenyl)-L-phenylalaninamide]	0.0032 µM	0.019 µM
COC(=O)N[C@H](C(=O)Nc1cccc(F)c1CC[C@@H]1CN[C@H](COC(=O)NCC(F)(F)F)CO1)[C@@H](c1ccc(F)cc1)C1CCOCC1 [Example 130, (βR)-4-Fluoro-N-(3-fluoro-2-{2-[(2R,5S)-5-({[(2,2,2-trifluoroethyl)carbamoyl]oxy}methyl)morpholin-2-yl]ethyl}phenyl)-Nα-(methoxycarbonyl)-β-(tetrahydro-2H-pyran-4-yl)-L-phenylalaninamide]	0.068 µM	0.026 µM
CC(C)COC(=O)N[C@H](C(=O)Nc1cncc(F)c1CC[C@@H]1CN[C@H](COC(=O)NCC(F)(F)F)CO1)C(c1ccc(F)cc1)c1ccc(F)cc1 [Example 140, 4-Fluoro-β-(4-fluorophenyl)-N-(5-fluoro-4-{2-[(2R,5S)-5-({[(2,2,2-trifluoroethyl)carbamoyl]oxy}methyl)morpholin-2-yl]ethyl}pyridin-3-yl)-Nα-[(2-methylpropoxy)carbonyl]-L-phenylalaninamide]	0.0021 µM	0.021 µM
O=C(CC(c1ccccc1)c1ccccc1)Nc1cncc(F)c1CC[C@@H]1CN[C@H](COC(=O)NCC(F)(F)F)CO1 [Example 146, [(3S,6R)-6-(2-{3-[(3,3-diphenylpropanoyl)amino]-5-fluoropyridin-4-yl}ethyl)morpholin-3-yl]methyl (2,2,2-trifluoroethyl)carbamate]	0.013 µM	0.047 µM
O=C(C[C@@H](c1ccc(F)cc1)c1cc(F)cc(F)c1)Nc1cccc(F)c1CC[C@@H]1CN[C@H](COC(=O)NCC(F)(F)F)CO1 [Example 147, {(3S,6R)-6-[2-(2-{[(3S)-3-(3,5-difluorophenyl)-3-(4-fluorophenyl)propanoyl]amino}-6-fluorophenyl)ethyl]morpholin-3-yl} methyl (2,2,2-trifluoroethyl)carbamate]	0.0049 µM	0.12 µM
O=C(C[C@@H](c1ccc(F)cc1)C1CCCCC1)Nc1cncc(F)c1CC[C@@H]1CN[C@H](COC(=O)NCC(F)(F)F)CO1 [Example 148, {(3S,6R)-6-[2-(3-{[(3R)-3-cyclohexyl-3-(4-fluorophenyl)propanoyl]amino}-5-fluoropyridin-4-yl)ethyl]morpholin-3-yl}methyl (2,2,2-trifluoroethyl)carbamate]	0.022 µM	0.15 µM
O=C(C[C@@H](c1ccc(F)cc1)c1cc(F)ccc1F)Nc1cncc(F)c1CC[C@@H]1CN[C@H](COC(=O)NCC(F)(F)F)CO1 [Example 149, {(3S,6R)-6-[2-(3-{[(3S)-3-(2,5-difluorophenyl)-3-(4-fluorophenyl)propanoyl]amino}-5-fluoropyridin-4-yl)ethyl]morpholin-3-yl}methyl (2,2,2-trifluoroethyl)carbamate]	0.0014 µM	0.014 µM
O=C(C[C@H](c1ccccc1)c1ccc(Cl)cc1)Nc1cccc(F)c1CC[C@@H]1CN[C@H](COC(=O)NCC(F)(F)F)CO1 [Example 150, {(3S,6R)-6-[2-(2-{[(3R)-3-(4-chlorophenyl)-3-phenylpropanoyl]amino}-6-fluorophenyl)ethyl]morpholin-3-yl}methyl (2,2,2-trifluoroethyl) carbamate]	0.011 µM	0.13 µM
COc1ccc([C@H](CC(=O)Nc2cccc(F)c2CC[C@@H]2CN[C@H](COC(=O)NCC(F)(F)F)CO2)c2ccc(F)cc2)cc1 [Example 151, {(3S,6R)-6-[2-(2-fluoro-6-{[(3S)-3-(4-fluorophenyl)-3-(4-methoxy-phenyl)propanoyl]amino}phenyl)ethyl]morpholin-3-yl}methyl (2,2,2-trifluoroethyl)carbamate]	0.1 µM	0.29 µM
O=C(C[C@H](c1ccc(F)cc1)c1ccc(Cl)cc1)Nc1cccc(F)c1CC[C@@H]1CN[C@H](COC(=O)NCC(F)(F)F)CO1 [Example 154, {(3S,6R)-6-[2-(2-{[(3R)-3-(4-chlorophenyl)-3-(4-fluorophenyl)propanoyl]amino}-6-fluoro-phenyl)ethyl]morpholin-3-yl}methyl (2,2,2-trifluoroethyl)carbamate]	0.0051 µM	0.15 µM
O=C(C[C@H](c1ccc(F)cc1)c1ccc(Br)cc1)Nc1cccc(F)c1CC[C@@H]1CN[C@H](COC(=O)NCC(F)(F)F)CO1 [Example 155, {(3S,6R)-6-[2-(2-{[(3R)-3-(4-bromophenyl)-3-(4-fluorophenyl)propanoyl]amino}-6-fluoro-phenyl)ethyl]morpholin-3-yl}methyl (2,2,2-trifluoroethyl)carbamate]	0.0061 µM	0.058 µM
NC(=O)OC[C@@H]1CO[C@H](CCc2c(F)cccc2NC(=O)C[C@@H](c2ccc(F)cc2)c2ccc(F)cc2F)CN1 [Example 156, {(3S,6R)-6-[2-(2-{[(3S)-3-(2,4-difluorophenyl)-3-(4-fluorophenyl)propanoyl]amino}-6-fluoro-phenyl)ethyl]morpholin-3-yl}methyl carbamate]	0.01 µM	0.026 µM
NC(=O)OC[C@@H]1CO[C@H](CCc2c(F)cccc2NC(=O)C[C@@H](c2ccc(F)cc2)c2ccncc2F)CN1 [Example 157, {(3S,6R)-6-[2-(2-fluoro-6-{[(3S)-3-(4-fluorophenyl)-3-(3-fluoropyridin-4-yl)propanoyl]amino}phenyl)ethyl]morpholin-3-yl}methyl carbamate]	0.0096 µM	0.018 µM
